# From PubChem BioAssay (NCI)
#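 Compound exposure: 48 hours, 5 concentrations, 96-well plates. GI50 is the concentration that inhibits growth by half. The concentration for full growth arrest is given as TGI.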
# Key:
# Assay in all cases: NCI tumour cell line growth inhibition, 48 h
# [1] = test system: SF-539 CNS
# [2] = test system: NCI-H226 lung
# [3] = test system: RPMI-8226 leukemia
# [4] = test system: RXF 393 renal
# [5] = test system: MOLT-4 leukemia
# [6] = test system: SK-MEL-2 melanoma
# [7] = test system: HCT-15 colon
# [8] = test system: HS 578T breast
# [9] = test system: EKVX NSCLC
# [10] = test system: MDA-MB-231 breast
# [11] = test system: MALME-3M melanoma
# [12] = test system: CAKI-1 renal
# [13] = test system: T-47D breast
# [14] = test system: MDA-MB-435
# [15] = test system: MCF7 breast
# [16] = test system: NCI-H522 lung
# [17] = test system: NCI-H23 lung
# [18] = test system: COLO 205 colon
# [19] = test system: OVCAR-4 ovarian
# [20] = test system: SNB-19 CNS
# [21] = test system: HT29 colon
# [22] = test system: SK-MEL-28 melanoma
# [23] = test system: LOX IMVI melanoma
# [24] = test system: A498 renal
# [25] = test system: OVCAR-8 ovarian
# [26] = test system: UACC-62 melanoma
# [27] = test system: SK-OV-3 ovarian
# [28] = test system: BT-549 breast
smiles,measurement,setting,value
CN(C)c1ccc(-c2cc(-c3cccc(NS(C)(=O)=O)c3)nc(N)c2C#N)cc1,TGI,[1],0.173 µM
same,GI50,[2],0.045 µM
same,TGI,[2],17.6 µM
same,GI50,[3],0.0416 µM
same,TGI,[3],2.55 µM
same,GI50,[4],0.0183 µM
same,TGI,[4],0.0565 µM
same,GI50,[5],0.0822 µM
same,TGI,[5],> 58.4 µM
same,GI50,[6],0.0449 µM
same,TGI,[6],21.8 µM
same,GI50,[7],0.0362 µM
same,TGI,[7],11.8 µM
same,GI50,[8],0.0292 µM
same,TGI,[8],49.2 µM
same,GI50,[9],0.133 µM
same,TGI,[9],> 63.8 µM
same,GI50,[10],0.11 µM
same,TGI,[10],1.52 µM
same,GI50,[11],0.948 µM
same,TGI,[11],47.9 µM
same,GI50,[12],0.0348 µM
same,TGI,[12],15.1 µM
same,GI50,[13],0.951 µM
same,TGI,[13],35.9 µM
same,GI50,[14],0.0122 µM
same,TGI,[14],0.035 µM
same,GI50,[15],0.238 µM
same,TGI,[15],17.9 µM
same,GI50,[16],< 0.013 µM
same,TGI,[16],1.21 µM
same,GI50,[17],0.0457 µM
same,TGI,[17],20.5 µM
same,GI50,[18],0.025 µM
same,TGI,[18],0.0729 µM
same,GI50,[19],0.522 µM
same,TGI,[19],53.8 µM
same,GI50,[20],0.0526 µM
same,TGI,[20],> 48.9 µM
same,GI50,[21],0.0319 µM
same,TGI,[21],0.457 µM
same,GI50,[22],0.0508 µM
same,TGI,[22],35.1 µM
same,GI50,[23],0.0466 µM
same,TGI,[23],13.5 µM
same,GI50,[24],0.054 µM
same,TGI,[24],38.8 µM
same,GI50,[25],0.0515 µM
same,TGI,[25],> 87.8 µM
same,GI50,[26],0.0357 µM
same,TGI,[26],19.8 µM
same,GI50,[27],0.033 µM
same,TGI,[27],1.74 µM
same,GI50,[28],0.0645 µM
same,TGI,[28],4.65 µM
